Among the test systems are 786-0; A498; A549; ACHN; BT-549; CAKI-1; COLO 205; DU-145; HCT-116; HL-60; IGROV-1; K562; MCF7; MDA-MB-435; MOLT-4; NCI-H460; NCI-H522; OVCAR-5; SK-OV-3; U-251.
Common to all, as to assay: inhibition of tumour cell growth, NCI panel, 48 h

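In this assay, cells in 96-well plates receive the compound at five concentrations for 48 hours. Endpoints are linearly interpolated between the surrounding concentrations. GI50 marks 50% less growth.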 Calls of active or inactive are those of the source. No stated cut-off is given here; in the data, active = GI50 up to about 1.1 µM and inactive = higher.

Results on seven molecules are retold here after ChEMBL document CHEMBL1201862, “PubChem BioAssay data set” (2004).

As for `O=C(O)CSCC(=O)c1ccccc1`, the GI50 in the assay on 786-0, in the assay on A498, with A549, in the assay with ACHN, with BT-549 and in the assay on CAKI-1 was > 100 µM (inactive) in each case. Also, the GI50 in the assay with COLO 205, in the assay on DU-145, in the assay on HCT-116, with HL-60, in the assay with IGROV-1 and with K562 was > 100 µM (inactive) in each case. Also, the GI50 in the assay with MCF7, in the assay on MDA-MB-435, in the assay with MOLT-4, with NCI-H460, with NCI-H522 and with OVCAR-5 was > 100 µM (inactive) in each case. The GI50 with SK-OV-3 and in the assay on U-251 was > 100 µM (inactive) each time.

As to `CCc1nc(N)nc(N)c1-c1ccc(N2CCNCC2)c([N+](=O)[O-])c1`, the GI50 in the assay on 786-0 is 5.2 µM (inactive); in the assay with A498 it was 39.7 µM (inactive); with A549 it was 3.09 µM (inactive); in the assay on ACHN, 17.9 µM (inactive); in the assay on BT-549 it was 45.9 µM (inactive); in the assay with CAKI-1, 64.3 µM (inactive). For the same molecule, the GI50 with COLO 205 is 15.3 µM (inactive); with DU-145 it was 29.2 µM (inactive); in the assay with HCT-116 it was 1.77 µM (inactive); in the assay on HL-60 it was 4.59 µM (inactive); in the assay on IGROV-1, 7.55 µM (inactive); in the assay with K562, 0.718 µM (active). Besides, the GI50 is 12.4 µM (inactive) in the assay on MCF7; 4.27 µM (inactive) with MDA-MB-435; 5.65 µM (inactive) in the assay on MOLT-4; 2.11 µM (inactive) with NCI-H460; 24.4 µM (inactive) in the assay on NCI-H522; 30.3 µM (inactive) with OVCAR-5. Further, the GI50 was 91.2 µM (inactive) with SK-OV-3 and 6.03 µM (inactive) with U-251.

`C/C1=C/C2=CC(C)C[C@@H]2C(=O)[C@]2(C)C(=O)CC(C)(C)[C@H]2CC1=O` (stereo not given in full): the GI50 in the assay on 786-0, with A498, in the assay on A549, in the assay on ACHN, with BT-549 and in the assay on CAKI-1 was > 50 µM (inactive) each time. For the same molecule, the GI50 in the assay on COLO 205 was > 50 µM (inactive); in the assay with DU-145, > 50 µM (inactive); in the assay with HCT-116, > 50 µM (inactive); in the assay on HL-60, 9.73 µM (inactive); in the assay with IGROV-1, > 50 µM (inactive); in the assay with K562, 32.3 µM (inactive). Besides, the GI50 in the assay with MCF7, in the assay with MDA-MB-435, with MOLT-4, with NCI-H460, in the assay with NCI-H522 and in the assay with OVCAR-5 was > 50 µM (inactive) throughout. For the same molecule, the GI50 with SK-OV-3 and in the assay with U-251 was > 50 µM (inactive) throughout.

Regarding `C=C(CCOC)CCC1CCCCC(CN(C)C)C1=O` (stereo not given), the GI50 with 786-0, with A498, in the assay with A549, in the assay with ACHN, in the assay with BT-549 and in the assay on CAKI-1 was > 100 µM (inactive) each time. Besides, the GI50 in the assay on COLO 205, in the assay on DU-145, in the assay on HCT-116, in the assay on HL-60, in the assay on IGROV-1 and in the assay on K562 was > 100 µM (inactive) in each case. Besides, the GI50 in the assay on MCF7, with MDA-MB-435, in the assay with MOLT-4, in the assay on NCI-H460, with NCI-H522 and with OVCAR-5 was > 100 µM (inactive) in each case. In addition, the GI50 in the assay with SK-OV-3 and with U-251 was > 100 µM (inactive) throughout.

As to `COc1cc2c3c(c1OC)-c1cc4c(cc1CC3(C#N)N(C(=O)c1ccccc1)CC2)OCO4` (stereo not given), the GI50 was 29.1 µM (inactive) in the assay with 786-0; 41.1 µM (inactive) with A498; 37.5 µM (inactive) in the assay with A549; 40.4 µM (inactive) with ACHN; > 100 µM (inactive) in the assay on BT-549; 37.9 µM (inactive) in the assay on CAKI-1. In addition, the GI50 was > 100 µM (inactive) in the assay with COLO 205; > 100 µM (inactive) in the assay on DU-145; 31.9 µM (inactive) in the assay on HCT-116; > 100 µM (inactive) in the assay with HL-60; 33 µM (inactive) in the assay with IGROV-1; 73.5 µM (inactive) in the assay with K562. Moreover, the GI50 is 91.6 µM (inactive) with MCF7; > 88.5 µM (inactive) in the assay on MDA-MB-435; 68.4 µM (inactive) in the assay on MOLT-4; 52.6 µM (inactive) with NCI-H460; 28.2 µM (inactive) in the assay on NCI-H522; > 56.2 µM (inactive) with OVCAR-5. Besides, the GI50 in the assay on SK-OV-3 is 25.7 µM (inactive); in the assay on U-251 it was 21.1 µM (inactive).

Regarding `Cc1ccc(S(=O)(=O)N/N=C2/CC[C@H](C(C)(C)C)C[C@@H]2C)cc1`, the GI50 in the assay with 786-0 is 17.1 µM (inactive); in the assay with A498, 17.6 µM (inactive); in the assay on A549 it was 16.4 µM (inactive); in the assay on ACHN it was 16.6 µM (inactive); with BT-549, 16.2 µM (inactive); in the assay with CAKI-1, 13.5 µM (inactive). For the same molecule, the GI50 in the assay with COLO 205 is 17 µM (inactive); in the assay with DU-145 it was 15.2 µM (inactive); in the assay on HCT-116 it was 14.8 µM (inactive); in the assay with HL-60 it was 35.6 µM (inactive); in the assay with IGROV-1 it was 14.9 µM (inactive); with K562, 16.6 µM (inactive). Besides, the GI50 in the assay on MCF7 was 18.5 µM (inactive); in the assay with MDA-MB-435, 16 µM (inactive); with MOLT-4 it was 12.5 µM (inactive); with NCI-H460 it was 17 µM (inactive); in the assay with NCI-H522 it was > 10 µM (inactive); in the assay on OVCAR-5, 18.2 µM (inactive). The figures for the GI50 in the assay with SK-OV-3 and in the assay with U-251 were 18.4 µM (inactive) and 17.4 µM (inactive), respectively.

Consider `C[C@]12CC[C@H](O)CC1=CC[C@@H]1[C@@H]2CC[C@]2(C)c3nc(Cl)ccc3C[C@@H]12`, for which the GI50 with 786-0 is 30.1 µM (inactive); in the assay with A498, > 100 µM (inactive); in the assay on A549 it was 25 µM (inactive); in the assay with ACHN it was 15.6 µM (inactive); in the assay with BT-549 it was 26.1 µM (inactive); in the assay on CAKI-1 it was > 100 µM (inactive). Moreover, the GI50 in the assay with COLO 205 was > 100 µM (inactive); with DU-145, > 100 µM (inactive); in the assay on HCT-116, 47 µM (inactive); in the assay with HL-60 it was 40.1 µM (inactive); in the assay on IGROV-1, 61.5 µM (inactive); in the assay with K562, 5.78 µM (inactive). In addition, the GI50 was > 64.7 µM (inactive) in the assay on MCF7; 6.76 µM (inactive) with MDA-MB-435; 8.45 µM (inactive) in the assay with MOLT-4; 28.1 µM (inactive) in the assay on NCI-H460; 49.8 µM (inactive) with NCI-H522; > 80.9 µM (inactive) in the assay on OVCAR-5. Moreover, the GI50 is 42.7 µM (inactive) in the assay with SK-OV-3 and 31 µM (inactive) with U-251.
